Literature values in US20200155524A1, “METHOD FOR REDUCING SIDE EFFECTS FROM ADMINISTRATION OF PHOSPHODIESTERASE-4 INHIBITORS” (ARCUTIS, INC., priority 2018, published 2020).
Read-outs that look alike come from different tables or passages of the source.

How the values were obtained:
psoriasis = settings: after 4 weeks of dosing
[1] = tested on: PDE-4 isoforms and subtypes; settings: different PDE-4 isoforms and subtypes
[2] = initial oral administration

SMILES	PASI 75 response rate (psoriasis)	half maximal inhibitory concentration (IC50) [1]	Tmax (time after administration to reach Cmax) ([2]; 250 mcg tablet)	Tmax (time after administration to reach Cmax) ([2]; 500 mcg tablet)
CCC(=O)OCC(=O)[C@@]1(OC(=O)CC)[C@@H](C)C[C@H]2[C@@H]3CCC4=CC(=O)C=C[C@]4(C)[C@@]3(F)[C@@H](O)C[C@@]21C [betamethasone dipropionate 0.064%, betamethasone dipropionate]	32.7%	–	–	–
O=C(Nc1c(Cl)c[n+]([O-])cc1Cl)c1ccc(OC(F)F)c(OCC2CC2)c1 [roflumilast N-oxide, 3-cyclopropylmethoxy-4-difluoromethoxy-N-(3,5-dichloropyrid-4-yl 1-oxide)benzamide]	–	subnanomolar	–	–
O=C(Nc1c(Cl)cncc1Cl)c1ccc(OC(F)F)c(OCC2CC2)c1 [roflumilast, N-(3,5-dichloropyrid-4-yl)-3-cyclopropylmethoxy-4-difluoromethoxybenzamid-e]	–	subnanomolar	1 h	1 h
